Assay results: patent publication US20220071970A1, “QUINUCLIDINE-3-ONE DERIVATIVES AND THEIR USE IN CANCER TREATMENT” (Aprea Therapeutics AB, priority 2018, published 2022)
Like-named read-outs stand apart in the source and are kept apart here.

Assays:
[1] = tested on: SaOS-2 His273 mtp53 human osteosarcoma cell line; assay: In vitro efficacy study using the SaOS-2 His273 protocol (CellTiter-Glo viability, 72 h); format: cell-based; settings: read-out: SaOS-2 His273 IC50
Description: SaOS-2 His273 mtp53 is a human osteosarcoma cell line which has been genetically engineered at OnkPat CCK to express His273 mutated p53.
3000 cells/well (50 μl) were seeded into masked (black or white with clear bottom) 96-well cell culture plates using Iscove's Modified Dulbecco's Medium supplemented with 10% heat inactivated (56° C. for 60 min) fetal calf serum. The plates were then incubated for 4 hours, allowing the cells to attach. The test compounds were dissolved in DMSO or water to a concentration of 0.01 M and then further diluted to desired concentrations using the cell medium. 50 μl of freshly diluted test compound from fresh stock was added to the wells. The plates were then incubated for 72 hours.
For viability detection, CellTiter-Glo® Luminescent Cell Viability Assay (CTG) was used. CTG is a homogeneous “add-mix-measure” format method of determining the number of viable cells in culture based on quantitation of the ATP present, an indicator of metabolically active cells. The luminescence was measured using the PerkinElmer Victorx4 instrument.
The average of the signal values for the untreated cells was calculated for each plate. The % of growth suppression was calculated as:
100−((Signal sample/Signal untreated cells)×100).
The results of the SaOs-2 His273 analyses were expressed as IC50 values, i.e. concentration that suppresses growth of at least 50% of the cells. The IC50 values of various compounds according to the invention and of some comparative compounds are shown in Table 1, Table 2, Table 3 and Table 4.

[2] = Stability study in pH 4 buffer at 25° C.; format: physicochemical; settings: for % Parent remaining at 48 h: LCMS, normalized to internal standard; for half-life at 0.2 mg/mL: pH 4 acetate buffer
Description: Chemical stability at low pH was investigated for selected compounds. Compounds that are highly unstable may not be suitable as drug candidates, for example due to potential difficulties in achieving and maintaining a stable and therapeutically effective formulation. For instance, compounds intended for oral administration must be chemically stable at the low pH observed in the stomach in order for this to be an acceptable route.
A pH 4 buffer was prepared by mixing 4.1 mL of 0.2 M acetic acid (aq.) with 0.9 mL of a 0.2 M sodium acetate (aq.) and then diluting to 10 mL with distilled water. The pH was determined by pH meter to 4.04.
Benzylpiperidine-4-ol was used as internal standard. A 1 mg/mL stock solution was prepared by dissolving 3.5 mg benzylpiperidine-4-ol in 3.5 mL of water. 500 μL of the stock solution were added to pH 4 buffer (5 mL) and the mixture was shaken.
A 1 mg/mL solution in acetonitrile was prepared for each test compound. Two drops of water were added to ca. 1 mL of acetonitrile in order to completely dissolve Example 2.
To 400 μL of pH 4 buffer with internal standard were added 100 μL of 1 mg/mL test compound solution. The solutions were stored at 25° C. and analyzed by LCMS directly and at different time points up to 48 hours. The [M+H]^+ ion for parent compound (test compound) and the internal standard (m/z 192) were extracted and integrated. The area for the parent compound was normalized to the area of the internal standard for each time point.
The half-life was calculated based on 1st order kinetics (t %=ln2/k). The rate constant (k) was obtained by plotting In[normalized peak area] against time.
Results for half-life and percent parent compound remaining at 48 h for selected examples and a comparative example are shown in Table 5.

[3] = SAOS-2, growth suppression, 72 hours incubation, CellTiter-Glo

| SMILES | IC50 ([1]; SAOS-2, 72 h) [µM] | also measured |
| --- | --- | --- |
| Cc1cn(CC2C(=O)C3CCN2CC3)c(=O)n(C(=O)OC(C)(C)C)c1=O (racemic) [Example 25, tert-butyl 5-methyl-2,6-dioxo-3-((3-oxoquinuclidin-2-yl)methyl)-3,6-dihydropyrimidine-1(2H)-carboxylate] | 5.3 |  |
| O=C1C2CCN(CC2)C1CNS(=O)(=O)c1ccccc1 (racemic) [Example 10, N-((3-oxoquinuclidin-2-yl)methyl)benzenesulfon-amide] | 7.1 |  |
| CS(=O)(=O)N(CC1C(=O)C2CCN1CC2)CC1C(=O)C2CCN1CC2 (stereo not shown) [Example 17, N,N-bis((3-oxoquinuclidin-2-yl)methyl)methanesulfonamide] | 2.9 |  |
| O=C(NCC1C(=O)C2CCN1CC2)C(F)F (racemic) [Example 5, 2,2-difluoro-N-((3-oxoquinuclidin-2-yl)methyl)acetamide] | 13 |  |
| CCN(CC1C(=O)C2CCN1CC2)C(=O)C(Cl)(Cl)Cl (racemic) [Example 1, 2,2,2-trichloro-N-ethyl-N-((3-oxoquinuclidin-2-yl)methyl)acetamide] | 3.2 |  |
| CCN(CC1C(=O)C2CCN1CC2)C(=O)C(F)(F)F (racemic) [Example 3, N-ethyl-2,2,2-trifluoro-N-((3-oxoquinuclidin-2-yl)methyl)acetamide] | 4.2 |  |
| O=C1C2CCN(CC2)C1CNS(=O)(=O)C1CC1 (racemic) [Example 19, N-((3-oxoquinuclidin-2-yl)methyl)cyclopropane-sulfonamide] | 12 |  |
| O=C1C2CCN(CC2)C1Cn1cccn1 (racemic) [compound 4, 2-((1H-pyrazol-1-yl)methyl)quinuclidin-3-one, reference compound] | > 40 |  |
| O=C1C2CCN(CC2)C1CNS(=O)(=O)c1ccncc1 (racemic) [Example 13, N-((3-oxoquinuclidin-2-yl)methyl)pyridine-4-sulfon-amide] | 6.3 |  |
| CS(=O)(=O)NCC1C(=O)C2CCN1CC2 (racemic) [Example 9, N-((3-oxoquinuclidin-2-yl)methyl)methanesulfon-amide] | 8 |  |
| O=C1C2CCN(CC2)C1CNS(=O)(=O)c1ccccn1 (racemic) [Example 14, N-((3-oxoquinuclidin-2-yl)methyl)pyridine-2-sulfonamide] | 6 |  |
| O=C1C2CCN(CC2)C1Cn1ccc(=O)[nH]c1=O (racemic) [Example 23, 1-((3-oxoquinuclidin-2-yl)methyl)pyrimidine-2,4(1H,3H)-dione] |  | IC50 [1, 3]: 3.2 µM; % Parent remaining at 48 h [2]: 59%; half-life at 0.2 mg/mL ([2]; 1st order kinetics): 67 h |
| CS(=O)(=O)N(CC1C(=O)C2CCN1CC2)c1ccccc1 (racemic) [Example 22, N-((3-oxoquinuclidin-2-yl)methyl)-N-phenyl-methanesulfonamide] | 1.6 |  |
| O=C1C2CCN(CC2)C1CNS(=O)(=O)C(F)(F)F (racemic) [Example 16, 1,1,1-trifluoro-N-((3-oxoquinuclidin-2-yl)methyl)methanesulfonamide] | 2.9 |  |
| O=C1C2CCN(CC2)C1Cc1cnn[nH]1 (racemic) [Comparative example 5, 2-((1H-1,2,3-triazol-5-yl)methyl)quinuclidin-3-one, reference compound] | > 40 |  |
| Cc1cn(CC2C(=O)C3CCN2CC3)c(=O)n(CC2C(=O)C3CCN2CC3)c1=O (stereo not shown) [Example 26, 5-methyl-1,3-bis((3-oxoquinuclidin-2-yl)methyl)-pyrimidine-2,4(1H,3H)-dione] |  | IC50 [1, 3]: 4 µM; % Parent remaining at 48 h [2]: 73%; half-life at 0.2 mg/mL ([2]; 1st order kinetics): 70 h |
| CC1(S(=O)(=O)NCC2C(=O)C3CCN2CC3)CC1 (racemic) [Example 20, 1-methyl-N-((3-oxoquinuclidin-2-yl)methyl)cyclo-propane-1-sulfonamide] | 7.4 |  |
| CN(C)C(=O)c1ncn(CC2C(=O)C3CCN2CC3)n1 (single isomer, unassigned) [Example 29, N,N-dimethyl-1-((3-oxoquinuclidin-2-yl)methyl)-1H-1,2,4-triazole-3-carboxamide] | 8.8 |  |

| SMILES | IC50 ([1]; SAOS-2, 72 h) [µM] | also measured |
| --- | --- | --- |
| O=C1C2CCN(CC2)C1CNS(=O)(=O)c1cccnc1 (racemic) [Example 6, N-((3-oxoquinuclidin-2-yl)methyl)pyridine-3-sulfonamide] | 7.2 |  |
| CCN(CC1C(=O)C2CCN1CC2)S(C)(=O)=O (racemic) [Example 8, N-ethyl-N-((3-oxoquinuclidin-2-yl)methyl)methane-sulfonamide] | 6 |  |
| O=C1C2CCN(CC2)C1Cn1cnc(Cl)n1 (racemic) [Example 28, 2-((3-chloro-1H-1,2,4-triazol-1-yl)methyl)quinuclidin-3-one] | 3.1 |  |
| O=C(NCC1C(=O)C2CCN1CC2)c1cccnc1 (racemic) [compound 2, N-((3-oxoquinuclidin-2-yl)methyl)nicotinamide, reference compound] | > 40 |  |
| O=C1C2CCN(CC2)C1CNS(=O)(=O)c1ccc(F)cc1 (racemic) [Example 7, 4-fluoro-N-((3-oxoquinuclidin-2-yl)methyl)benzenesulfonamide] | 7.2 |  |
| Cc1cn(CC2C(=O)C3CCN2CC3)c(=O)[nH]c1=O (racemic) [Example 24, 5-methyl-1-((3-oxoquinuclidin-2-yl)methyl)pyrimidine-2,4(1H,3H)-dione] |  | IC50 [1, 3]: 6.5 µM; % Parent remaining at 48 h [2]: >95%; half-life at 0.2 mg/mL ([2]; 1st order kinetics): > 630 h |
| NC(=O)c1ncn(CC2C(=O)C3CCN2CC3)n1 (racemic) [Example 32, 1-((3-oxoquinuclidin-2-yl)methyl)-1H-1,2,4-triazole-3-carboxamide] | 10 |  |
| CCN(CC1C(=O)C2CCN1CC2)S(=O)(=O)C(F)(F)F (racemic) [Example 15, N-ethyl-1,1,1-trifluoro-N-((3-oxoquinuclidin-2-yl)-methyl)methanesulfonamide] | 3.5 |  |
| CNC(=O)c1ncn(CC2C(=O)C3CCN2CC3)n1 (racemic) [Example 27, N-methyl-1-((3-oxoquinuclidin-2-yl)methyl)-1H-1,2,4-triazole-3-carboxamide] | 5 |  |
| O=C1C2CCN(CC2)C1Cn1cncn1 (racemic) [Example 30, 2-((1H-1,2,4-triazol-1-yl)methyl)quinuclidin-3-one] | 26 |  |
| O=C1C2CCN(CC2)C1CNC(=O)C(Cl)(Cl)Cl (racemic) [Example 2, 2,2,2-trichloro-N-((3-oxoquinuclidin-2-yl)methyl)acetamide] | 6.9 |  |
| CS(=O)(=O)N(CC1C(=O)C2CCN1CC2)C1CC1 (racemic) [Example 21, N-cyclopropyl-N-((3-oxoquinuclidin-2-yl)methyl)-methanesulfonamide] | 1.8 |  |
| N#Cc1ncn(CC2C(=O)C3CCN2CC3)n1 (racemic) [Example 31, 1-((3-oxoquinuclidin-2-yl)methyl)-1H-1,2,4-triazole-3-carbonitrile] | 2.4 |  |
| CC(C)S(=O)(=O)NCC1C(=O)C2CCN1CC2 (racemic) [Example 18, N-((3-oxoquinuclidin-2-yl)methyl)propane-2-sulfonamide] | 11 |  |
| CS(=O)(=O)N(CC(N)=O)CC1C(=O)C2CCN1CC2 (racemic) [Example 11, 2-(N-((3-oxoquinuclidin-2-yl)methyl)methylsulfon-amido)acetamide] | 4.1 |  |
| O=C1C2CCN(CC2)C1Cn1cc(F)c(=O)[nH]c1=O (stereo not shown) [Comparative example 3, 5-fluoro-1-((3-oxoquinuclidin-2-yl)methyl)pyrimidine-2,4(H,3H)-dione, reference compound] |  | Half-life ([2]; 1st order kinetics): 15 h; % Parent remaining at 48 h [2]: 18% |
| CC(=O)NCC1C(=O)C2CCN1CC2 (racemic) [compound 1, N-((3-oxoquinuclidin-2-yl)methyl)acetamide, reference compound] | > 40 |  |
| CS(=O)(=O)N(CC(=O)O)CC1C(=O)C2CCN1CC2 (racemic) [Example 12, N-(methylsulfonyl)-N-((3-oxoquinuclidin-2-yl)-methyl)qlycine] | 6 |  |
